Test results as given in patent publication US20090170880A1, “Methods and Means for the Treatment of Cancer” (priority 2007, published 2009).

How the values were obtained:
murine P-gp (Mdr1a) = biological target: T1, murine P-gp (Mdr1a) (Mus musculus, UniProt P21447); assay: Transwell transport of temozolomide, LLC-Mdr1a cells; assay type: in vitro ADME; settings: 40 μg/ml, LLC-Mdr1a versus LLC-PK1 monolayers
T1 construct: expressed in transfected cells; host or cells: LLC-PK1 (porcine kidney) cells transduced with murine Mdr1a
Method: (§1) The parental LLC pig-kidney (PK1) cell line and sublines transduced with murine Mdr1a or human MDR1 (12) and the parental Madine Darby Canine Kidney (MDCK) and murine Bcrp1 or human BCRP transduced sublines (13) were seeded on Transwell microporous polycarbonate membrane filters (3.0 μm pore size, 24 mm diameter; Costar Corning, N.Y., USA) at a density of 1×10^6 cells per well in 2 ml of MEM medium (Invitrogen Corporation, Carlsbad, Calif.) containing 10% v/v fetal calf serum. Cells were incubated at 37° C. in 5% CO2 for three days with one medium replacement after the first day. Two hours before the start of the experiment the medium in both compartments was replaced with 2 ml of OptiMEM medium (InVitrogen Corp.). At the start of the experiment the medium in the apical or basolateral compartment was replaced with 2 ml of freshly prepared OptiMEM medium containing 40 μg/ml of temozolomide. […] Zosuquidar (LY335979, 5 μM) was always added to the medium when doing experiments with MDCK cell lines to inhibit endogenous canine P-gp. Samples of 50 μl were collected every 30 min, for up to 2 h after start of the experiment. Because temozolomide is instable in medium at 37° C., we replaced one ml of the donor compartment by a freshly prepared aliquot every 30 min. […]

human BCRP = biological target: T2, human BCRP (Homo sapiens, UniProt Q9UNQ0); assay: Transwell transport of temozolomide, MDCK-BCRP cells; assay type: in vitro ADME; settings: 40 μg/ml, MDCK-BCRP versus MDCK parent, zosuquidar 5 μM
T2 construct: expressed in transfected cells; host or cells: MDCK (canine kidney) cells transduced with human BCRP
T2 sequence (Q9UNQ0 1-655): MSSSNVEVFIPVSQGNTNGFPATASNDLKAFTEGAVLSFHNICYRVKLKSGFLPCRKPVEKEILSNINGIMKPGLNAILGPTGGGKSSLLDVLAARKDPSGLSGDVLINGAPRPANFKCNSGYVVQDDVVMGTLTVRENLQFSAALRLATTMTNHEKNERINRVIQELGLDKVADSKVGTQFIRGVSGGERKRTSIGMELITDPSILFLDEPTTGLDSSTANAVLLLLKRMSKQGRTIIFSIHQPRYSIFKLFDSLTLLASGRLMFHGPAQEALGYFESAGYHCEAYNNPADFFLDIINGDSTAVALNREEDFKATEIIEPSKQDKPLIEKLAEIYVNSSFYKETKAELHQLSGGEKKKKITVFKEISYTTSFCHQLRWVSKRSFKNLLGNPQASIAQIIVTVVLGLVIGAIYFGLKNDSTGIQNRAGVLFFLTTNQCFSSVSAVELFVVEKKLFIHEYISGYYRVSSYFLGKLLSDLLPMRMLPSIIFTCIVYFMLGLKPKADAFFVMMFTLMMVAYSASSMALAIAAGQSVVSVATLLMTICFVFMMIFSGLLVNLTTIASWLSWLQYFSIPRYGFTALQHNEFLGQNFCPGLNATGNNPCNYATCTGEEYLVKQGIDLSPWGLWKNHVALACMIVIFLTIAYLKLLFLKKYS
Method: as §1

T1 sequence (P21447 whole entry): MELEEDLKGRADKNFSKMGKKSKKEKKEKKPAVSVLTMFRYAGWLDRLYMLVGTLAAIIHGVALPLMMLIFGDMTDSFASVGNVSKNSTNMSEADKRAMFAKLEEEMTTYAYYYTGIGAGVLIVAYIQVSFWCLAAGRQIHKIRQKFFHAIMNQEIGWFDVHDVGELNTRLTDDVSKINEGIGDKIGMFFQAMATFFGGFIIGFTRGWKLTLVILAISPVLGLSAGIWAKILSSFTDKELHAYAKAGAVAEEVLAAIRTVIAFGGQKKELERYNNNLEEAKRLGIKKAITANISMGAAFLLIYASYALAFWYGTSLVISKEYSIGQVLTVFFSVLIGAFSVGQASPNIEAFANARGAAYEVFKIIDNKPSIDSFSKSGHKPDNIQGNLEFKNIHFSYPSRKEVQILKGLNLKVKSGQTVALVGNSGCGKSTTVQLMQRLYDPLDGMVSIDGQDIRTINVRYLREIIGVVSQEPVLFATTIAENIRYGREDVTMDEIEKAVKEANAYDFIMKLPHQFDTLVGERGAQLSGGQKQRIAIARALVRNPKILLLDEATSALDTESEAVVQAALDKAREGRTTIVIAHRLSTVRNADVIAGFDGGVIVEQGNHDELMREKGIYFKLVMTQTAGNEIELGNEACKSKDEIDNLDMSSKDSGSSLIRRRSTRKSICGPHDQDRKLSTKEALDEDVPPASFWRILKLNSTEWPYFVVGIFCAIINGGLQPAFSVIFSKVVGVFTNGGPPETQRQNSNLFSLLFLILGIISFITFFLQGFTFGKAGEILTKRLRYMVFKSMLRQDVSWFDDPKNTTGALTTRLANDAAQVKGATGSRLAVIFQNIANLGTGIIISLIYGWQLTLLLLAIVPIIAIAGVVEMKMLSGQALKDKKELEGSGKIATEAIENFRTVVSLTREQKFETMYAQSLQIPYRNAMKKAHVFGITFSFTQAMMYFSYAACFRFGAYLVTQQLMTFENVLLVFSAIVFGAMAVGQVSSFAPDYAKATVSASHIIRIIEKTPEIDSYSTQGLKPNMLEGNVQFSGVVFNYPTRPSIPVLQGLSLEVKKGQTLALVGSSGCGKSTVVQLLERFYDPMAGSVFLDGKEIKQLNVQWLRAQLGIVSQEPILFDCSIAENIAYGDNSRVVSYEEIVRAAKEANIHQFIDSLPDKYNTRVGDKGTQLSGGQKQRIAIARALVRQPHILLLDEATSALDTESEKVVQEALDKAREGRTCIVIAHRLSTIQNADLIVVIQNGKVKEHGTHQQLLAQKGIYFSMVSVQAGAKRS

In the case of `Cn1nnc2c(C(N)=O)ncn2c1=O` [temozolomide, 8-carbamoyl-3-methyl-[3H]-imidazo[5,1-d]-1,2,3,5-tetrazin-4-one], the “transport of temozolomide by murine P-gp” value (murine P-gp (Mdr1a)) is reported as “very limited if any evidence for transport”, the “transport of temozolomide by murine P-gp” value (murine P-gp (Mdr1a); listed as Temozolomide) is reported as “not readily detected” and the “transport of temozolomide by human BCRP” value (human BCRP) is reported as “more moderate transport”. For the same molecule, the “transport of temozolomide by human BCRP” value (human BCRP; listed as Temozolomide) was “less”.
